From patent US10214746B2, “Soybean transformation method” (Dow AgroSciences LLC, priority 2013, dated 2019) come the findings set out here.

Assay [1] concerns non-transgenic soybean shoots. Briefly: Growth response (rooting) of non-transgenic soybean shoots on rooting medium with glufosinate. In kind it is in vivo. How it is done: Growth response studies to varying concentrations of selection agent were conducted using non-transgenic soybean shoots. In this example, glufosinate was used as the exemplary selection agent. Soybean shoots were regenerated from split-seed soybean tissues and cultivated on Shoot Induction medium until shoots had developed and were ready for transfer to rooting medium. Several different concentrations of glufosinate (0, 0.25 mg/L, 0.50 mg/L, 1 mg/L, 2 mg/L, 3 mg/L, 4 mg/L, 5 mg/L, and 6 mg/L) were incorporated into rooting medium (MS salts, B5 vitamins, 28 mg/L ferrous, 38 mg/L Na^2EDTA, 20 g/L sucrose and 0.59 g/L MES, 50 mg/L asparagine, 100 mg/L L-pyroglutamic acid, and 7 g/L NOBLE™ agar, pH 5.6) to determine which concentrations of glufosinate inhibited root development. […] However, 90% and 50% of the soybean shoots cultivated in rooting medium containing glufosinate at concentrations of 0.25 mg/L and 0.5 mg/L, respectively, produced roots. (see Table 1). The effective glufosinate concentration for inhibition of soybean shoot growth and development was determined to be at least 1.0 mg/L of glufosinate. Higher concentrations of glufosinate (e.g., concentrations greater than 1.0 mg/L) were effective in inhibiting root development.

Assay [2] relates to transgenic soybean shoots. Briefly: Root development and yellow fluorescence protein expression of pDAB9381-transformed soybean shoots on rooting medium with glufosinate. The assay is classed as in vivo, Glycine max. The protocol: The transformed soybean seeds were cultivated using the tissue culture protocol as described in U.S. Filing No. 61/739,349, herein incorporated by reference. Co-cultivation of the soybean plant seeds with an Agrobacterium strain containing the pDAB9381 plasmid was carried out for 5 days on co-cultivation medium covered with a filter paper. After 5 days of incubation on the co-cultivation medium, the explants were washed in liquid Shoot Induction (SI) medium for about 5 to 10 minutes. The explants were then cultured onto Shoot Induction-I (SI-I) medium. The soybean seeds were oriented so the flat side of the soybean seed faced up and the nodal end of the soybean cotyledon was imbedded into the SI-I medium. After 2 weeks of culture at 24° C. with an 18 hour photoperiod, the explants were transferred to the Shoot Induction-II (SI-II) medium supplemented with 6 mg/L glufosinate. After 2 weeks on SI-II medium, the cotyledons were removed from the explants, a flush shoot pad was excised by making a cut at the base of the cotyledon, and the isolated shoot was transferred to the Shoot Elongation (SE) medium. The cultures were transferred to fresh SE medium every two weeks. PETRI™ dishes were not wrapped with filter paper throughout the shoot induction and shoot elongation stages. Lighting sources were provided with an illumination of 80-90 μmoles s-1m-2 for the transformed tissues during shoot induction and shoot elongation.
The elongated shoots were dipped in 1 mg/L indole 3-butyric acid (IBA) for about 1 to 3 minutes to promote rooting prior to transferring of the isolated shoots to rooting medium (MS salts, B5 vitamins, 28 mg/L ferrous, 38 mg/L Na^2EDTA, 20 g/L sucrose and 0.59 g/L MES, 50 mg/L asparagine, 100 mg/L L-pyroglutamic acid, and 7 g/L NOBLE™ agar, pH 5.6) in phyta trays. A selection agent of glufosinate at a concentration of 1 mg/L was incorporated into the rooting medium for a subset of the transformation experiments.
Following culturing in the rooting medium at 24° C., with an 18 hour photoperiod, for 1-2 weeks, the soybean shoots that produced healthy, viable roots were transferred to soil. The soybean shoots comprising healthy, viable roots were placed in soil which was contained in an open plastic sundae cup. The plastic sundae cups containing the transferred soybean shoots comprising roots were placed in a CONVIRON™ for acclimatization of soybean plantlets. The rooted soybean plantlets were acclimated in the open sundae cups for several weeks before the plantlets were transferred to the greenhouse.
Incorporation of a section agent comprising glufosinate in soybean tissue culture rooting medium was tested to reduce the formation of non-germline, chimeric soybean transformation events and escapes. Following Agrobacterium-mediated transformation of soybean (cv. Maverick) with the binary vector, pDAB9381, soybean shoots were regenerated and cultured onto rooting medium that contained a selection agent comprising glufosinate. After root development was initiated on the rooting media comprising glufosinate, the roots were tested for transgene expression (yellow fluorescence protein).
A total of 531 transgenic soybean shoots were produced using the transformation method described above and transferred onto rooting medium containing the selection agent glufosinate. […] (see Table 2). A correlation was observed between yellow fluorescence protein transgene expression and viable, white root formation, wherein a significant majority of the viable, white roots expressed the yellow fluorescence protein transgene in root tissues. (see FIG. 2, FIG. 3, and FIG. 5). Microscopy results confirmed that about 92% of the soybean plants produced from rooting medium comprising a selection agent were transgenic as these soybean plants expressed the yellow fluorescence protein transgene. (see FIG. 2, FIG. 3, and FIG. 5).

The subject of assay [3] is transgenic soybean events. Briefly: Heritability analysis of transgenic soybean events produced on rooting medium comprising glufosinate (T1 plants sprayed with glufosinate). In kind it is in vivo. The source says: A total of 153 transgenic soybean events were isolated and grown to maturity. These soybean events were self-fertilized to produce seed that was obtained and analyzed for heritability. All of the 153 transgenic soybean events were confirmed to contain the yellow fluorescent protein and phosphinothricin acetyltransferase transgenes via molecular analysis in the parental T0 soybean plants. For each of the 153 transgenic soybean events, 15 seeds were obtained and germinated in soil under conventional green house conditions. The transgenic soybean plants were grown to the V1 stage of development and were sprayed with 411 g ae/ha glufosinate, which was used as the exemplary selection agent in this example. After treatment with glufosinate, the soybean plants were observed and graded as resistant or susceptible to glufosinate. The transgenic soybean events that produced at least one T1 seedling were determined to be a heritable event.

Assay [4] concerns soybean shoots. Description: Rooting medium selection of aad-12 transformed soybean shoots with 2,4-D. The assay is classed as in vivo, soybean (cv. Maverick). The settings on record: aad-12 transgene; rooting medium with 2,4-D about 2 to 120 mg/L. How it is done: Transformed soybean seed can be cultivated using a modified tissue culture protocol as described in U.S. Filing No. 61/739,349, herein incorporated by reference, wherein the selective agent is 2,4-D. Co-cultivation of the soybean plant seeds with Agrobacterium, can be carried out for 5 days on co-cultivation medium covered with a filter paper. After 5 days of incubation on the co-cultivation medium, the explants can be washed in liquid Shoot Induction (SI) medium for about 5 to 10 minutes. The explants can then be cultured onto Shoot Induction-I (SI-I) medium. The soybean seeds are oriented so the flat side of the soybean seed face up and the nodal end of the soybean cotyledon is imbedded into the SI-I medium. After 2 weeks of culture at 24° C. with an 18 hour photoperiod, the explants can be transferred to the Shoot Induction-II (SI-II) medium supplemented with 2 to 120 mg/L 2,4-D. After 2 weeks on SI-II medium, the cotyledons can be removed from the explants, wherein a flush shoot pad is excised by making a cut at the base of the cotyledon, and the isolated shoot is transferred to the Shoot Elongation (SE) medium. The cultures can be transferred to fresh SE medium every two weeks. PETRI™ dishes may not be wrapped with filter paper throughout the shoot induction and shoot elongation stages. […]

[5] abbreviates: glufosinate 1 mg/L in rooting medium, 531 plants.
Where [6] appears, read: root tissues, glufosinate 1 mg/L in rooting medium, 531 plants.
The mark [7] stands for this setting: rooting medium comprising glufosinate (1 mg/L).
The mark [8] stands for this setting: Brown/Black Roots on glufosinate rooting medium, 76 events.
Where [9] appears, read: Total, 153 T1 events, T1 sprayed with 411 g ae/ha glufosinate.
Setting [10] is: White Roots on glufosinate rooting medium, 77 events.
Where [11] appears, read: glufosinate at least 1 mg/L in rooting medium.

Entries after “also recorded” stand apart in the source; their conditions may differ.

For the compound `CP(=O)(O)CCC(N)C(=O)O` (racemic) [glufosinate, DL-phosphinothricin], the “Percentage of Shoots that Produced Roots” value in assay [1] (glufosinate 0.25 mg/L in rooting medium) is reported as 90%; in assay [1] (glufosinate 0.5 mg/L in rooting medium), 50%; in assay [1] (glufosinate 1.0 mg/L in rooting medium) it was 0%; in assay [1] (glufosinate 2.0 mg/L in rooting medium), 0%; in assay [1] (glufosinate 3.0 mg/L in rooting medium), 0%; in assay [1] (glufosinate 4.0 mg/L in rooting medium), 0%. Further, the “Percentage of Shoots that Produced Roots” value in assay [1] (glufosinate 5.0 mg/L in rooting medium) and in assay [1] (glufosinate 6.0 mg/L in rooting medium) was 0% in each case. Besides, the “Number of Shoots Producing Roots” value in assay [1] (glufosinate 0.25 mg/L, 10 shoots cultivated) is recorded as 9; in assay [1] (glufosinate 0.5 mg/L, 10 shoots cultivated), 5; in assay [1] (glufosinate 1.0 mg/L, 30 shoots cultivated), 0; in assay [1] (glufosinate 2.0 mg/L, 30 shoots cultivated), 0; in assay [1] (glufosinate 3.0 mg/L, 30 shoots cultivated), 0; in assay [1] (glufosinate 4.0 mg/L, 25 shoots cultivated) it was 0. In addition, the “Number of Shoots Producing Roots” value in assay [1] (glufosinate 5.0 mg/L, 25 shoots cultivated) was found to be 0; in assay [1] (glufosinate 6.0 mg/L, 25 shoots cultivated), 0. Further, in assay [1] (rooting media supplemented with 1 to 6 mg/L glufosinate), the “root formation of soybean shoots” value is listed as “no root formation was observed”. Further, the “effective glufosinate concentration for inhibition of soybean shoot growth and development” value in assay [1] (rooting medium, non-transgenic shoots) is given as “at least 1.0 mg/L”. Further, in assay [2] (setting [5]), the “Number of Plants with Unhealthy, Brown/Black Roots” value turned out to be 212. For the same compound, in assay [2] (setting [5]), the “Number of Plants with Viable, White Roots” value came out at 319. Moreover, the “Plants with Unhealthy, Brown/Black Roots (%)” value in assay [2] (setting [5]) turned out to be 40%. Further, the “Plants with Viable, White Roots (%)” value in assay [2] (setting [5]) turned out to be 60%. In addition, the “soybean plants produced from rooting medium comprising a selection agent that were transgenic (expressed the yellow fluorescence protein transgene)” value in assay [2] (microscopy, shoots with viable, white roots) is reported as “about 92%”. Also, the “Number of Plants with YFP Expression” value in assay [2] (setting [6]) stood at 271. Besides, in assay [2] (setting [6]), the “Number of Plants with no YFP Expression” value amounted to 260. In addition, the “Plants with YFP Expression (%)” value in assay [2] (setting [6]) turned out to be 51%. Also, the “Plants with no YFP Expression (%)” value in assay [2] (setting [6]) is 49%. For the same compound, the “root phenotype of germline transformants” value in assay [2] (setting [7]) is on record as “produce healthy, viable roots; also recorded: healthy viable roots were produced”. For the same compound, the “root phenotype of non-germline or chimeric transformants” value in assay [2] (setting [7]) is “either do not form roots or develop brown/black roots; also recorded: do not produce viable roots; also recorded: (1) no roots were produced; (2) roots were produced and turned brown; and, (3) roots were produced and turned black”. In addition, the figures for the “Percentage of heritable events” value in assay [3] (setting [8]), in assay [3] (setting [9]) and in assay [3] (setting [10]) were 7%, 48% and 90%, respectively. For the same compound, the “Percentage of non-heritable events” value in assay [3] (setting [8]) worked out at 93%; in assay [3] (setting [9]), 52%; in assay [3] (setting [10]), 10%. The “advanced events with viable, healthy roots confirmed to be germline soybean transformants” value in assay [3] (setting [11]) was “about 90%”. Besides, the “non-germline (chimeric) events eliminated based on root phenotype (brown/black roots or no root development)” value in assay [3] (setting [11]) is “about 93%”.
As for `O=C(O)COc1ccc(Cl)cc1Cl` [2,4-D, 2,4-dichlorophenoxyacetic acid], in assay [4], the “transgene expression in viable, white roots” value was “a significant majority of the viable, white roots express the transgene in root tissues”.
